# US20060025482A1, “(-)-Hydroxycitric acid for the modulation of angiotensin-converting enzyme” (priority 2004, published 2006)
# How the values were obtained:
# [1] = treated rats; cited from earlier work
# Sprague-Dawley Rats = assay: Systolic blood pressure by tail plethysmography in Sprague-Dawley rats on special diet (Example 1); assay type: in vivo, rat; settings: SD rats
# Text: (§1) A know effect of ACE inhibitors is a reduction in elevated systolic blood pressure. To test this, the following protocol was employed: Sprague-Dawley Rats (SD), approximately 8 weeks of age werw obtained. Six groups of eight male SD received the same […] rat chow manufactured to specifications. The special diets derived 30% of calories from fats (one half from lard and one half from corn oil), 50% from carbohydrates, and 20% from proteins. Twenty percent of dietary calories was derived from sucrose and the preponderance of the remaining carbohydrate calories was derived from dextrin. During weekdays (M-F), each group was gavaged twice daily with a solution containing a commercial source of potassium hydroxycitrate (KHCA), a commercial source of potassium-calcium hydroxycitrate (KCaHCA), or a pre-commercial non-salt source of potassium-magnesium hydroxycitrate (KMgHCA, listed as KMgHCA L-Low, M-Intermediate or H-High depending upon the dose). Over the weekends (S-S), a similar quantity of the weekday daily dose was added to twenty grams of food, that is, an amount of food estimated to be close to the daily intake of the animals. At initiation of study and four weeks, and eight weeks later, bloods were drawn from all SD for routine blood chemistries. Body weight (BW) was measured weekly and systolic blood pressure (SBP) was measured every two weeks.
# The HCA dosages in the arms varied. The dosage used in the KHCA arm was extrapolated from the recommended 1,500 mg HCA per day for humans consuming a normal diet (i.e., ≧30% calories derived from fats) advocated by a commercial seller of KHCA and claimed to have produced acceptable clinical results. The approximate equivalent for the rat model is 35.4 mg HCA per day, which we increased to 38.4 mg HCA per day for convenience in employing a 48% HCA potassium salt and to remain safely on the high side in practice. For the sake of comparison, a commercial KCaHCA salt (60% HCA) was chosen and delivered at an HCA dosage level of 48 mg per day, which slightly exceeded the lowest dosage of HCA found to be efficacious for inhibition of weight gain in rats in the early pharmaceutical trials (45.4 mg/day) using pure trisodium hydroxycitrate and a very low fat diet. The design thus utilized a realistic diet with rough equivalents of the HCA dosages claimed to be effective in both the human and rat models.
# The experimental KMgHCA dosings varied considerably from that of the other two salts. […] As a result, the recalculated HCA doses for the experimental compound were a low dose (KMgHCA L) of 14 mg, an intermediate dose (KMgHCA M) of 28 mg and a high dose (KMgHCA H) of 84 mg per day. The difficulty in calculating the HCA content in this case is not unique inasmuch as there is as of yet no universally accepted method for calculating the HCA content of the various salts. Again, preparations yielded the equivalent of 48 mg HCA per day from KCaHCA and 38.4 mg HCA per day from KHCA.
# (§2) Systolic Blood Pressure (SBP): SBP was estimated by tail plethysmography in unanesthetized rats after a brief warming period. Readings were taken approximately one minute apart. To be accepted, SBP measurements had to be virtually stable for a minimum of three consecutive readings.
# (§3) Statistical Analyses: Results are presented as mean±SEM. Many statistics were performed by one-way analysis of variance (ANOVA). SBP and BW were examined by two-way analyses of variance (one factor being dietary group and the second factor being time of examination). Where a significant effect of diet was detected by ANOVA (p<0.05), the Dunnett t test was used to establish which differences between means reached statistical significance (p<0.05). If a Student's t test was employed, this is noted.
# [2] = Blood chemistries in Sprague-Dawley rats (Example 1); assay type: in vivo, rat; settings: SD rats; for average insulin concentrations compared to control: differences not significant using ANOVA, all dose groups
# Text: as §1, §3
# [3] = Earlier study of SBP with a KCaHCA salt, not described; assay type: in vivo; settings: 120 mg HCA per day
# [4] = Body weight of SHR on chow/table sugar diet (Example 2); assay type: in vivo, rat; settings: 100 mg HCA per day in food, p=0.084
# Procedure: (§4) Spontaneously hypertensive rats (SHR) were placed on a diet composed of regular rat chow (60% w/w) and table sugar (40% w/w). This diet reliably elevates blood pressure in this animal model. One group received 100 mg HCA per day in the form of a new potassium-magnesium hydroxycitrate (different from that used in Example 1) via an added 5 g HCA per kg of food mix. Systolic blood pressure and body weight were tested as in Example 1 on a weekly basis.
# [5] = system: Spontaneously hypertensive rats (SHR); assay: Systolic blood pressure of SHR on chow/table sugar diet (Example 2); assay type: in vivo, rat; settings: 100 mg HCA per day in food, control SBP steadily increased
# Procedure: as §2, §4
# [6] = system: Spontaneously hypertensive rats (SHR); assay: Glucose tolerance test with 0.1 unit regular insulin injected along with glucose in SHR; assay type: in vivo, rat; settings: 100 mg HCA per day, at 7.5 minutes
# Procedure: as §4
# This was viewed as likely positive in that rats gain weight steadily as long as they remain in good health and the SHR at middle age, as used here, lives a relatively short life and its health deteriorates as its blood pressure rises. […] A glucose tolerance test was administered in which 0.1 unit of regular insulin was injected along with glucose. […] This finding indicates increased insulin sensitivity. (FIG. 6)
# [7] = system: Spontaneously hypertensive rats (SHR); assay: Losartan challenge: SBP response in SHR; assay type: in vivo, rat
# Text: Many factors can positively influence blood pressure, e.g., diuretics, antioxidants, regulators of sympathetic/parasympathetic tone, compounds that improve insulin sensitivity and so forth. Therefore, losartan, an angiotensin-2 receptor blocker, was utilized to discover whether the ACE system was involved in the results discussed in Example 1.
# as §4
# When losartan was injected, the SBP of both groups decreased. At 6 hours, the SBP were essentially the same. […] Thus, HCA appears to decrease angiotensin-2 in rats and to lower elevated SBP. Although insulin regulation likely is a factor in the blood pressure modulating effect of HCA, this evidence argues that inhibition of ACE is also important. […]
# [8] = twice a day; diet consisting of 70% glucose and 1% fat; cited from earlier work
# [9] = gavaged twice daily, KHCA 38.4 mg HCA per day, KCaHCA 48 mg HCA per day
# [10] = high dose (KMgHCA H) 84 mg HCA per day
# [11] = intermediate dose (KMgHCA M) 28 mg HCA per day
smiles,measurement,setting,value
"O=C(O)CC(O)(C(=O)O)C(O)C(=O)O (single isomer, unassigned; (-)) [(−)-hydroxycitrate, (−)-Hydroxycitric acid]","plasma levels of glucose, insulin, or free fatty acids relative to controls",[1],no significant differences
"O=C([O-])CC(O)(C(=O)[O-])C(O)C(=O)[O-].[Ca+2].[K+] (centres unmarked) [KCaHCA, potassium-calcium hydroxycitrate]",SBP compared to control at the end of eight weeks,Sprague-Dawley Rats; [9],significant decreases
same,average insulin concentrations compared to control,[2],did not show a trend toward lower circulating insulin
same,SBP in earlier study,[3],decrease in SBP
"O=C([O-])CC(O)(C(=O)[O-])C(O)C(=O)[O-].[K+].[K+].[K+] (centres unmarked) [KHCA, potassium hydroxycitrate]",SBP compared to control at the end of eight weeks,Sprague-Dawley Rats; [9],significant decreases
same,"insulin, control versus treatment, Student's t test",[2]; KHCA 38.4 mg HCA per day,showed significance
same,average insulin concentrations compared to control,[2],lower
"O=C([O-])CC(O)(C(=O)[O-])C(O)C(=O)[O-].[K+].[Mg+2] (centres unmarked) [KMgHCA, potassium-magnesium hydroxycitrate]",SBP compared to control at the end of eight weeks,Sprague-Dawley Rats; [10],significant decreases
same,lowering of SBP at the end of 8 weeks,Sprague-Dawley Rats; [10],over 10 mm Hg
same,SBP compared to control at the end of eight weeks,Sprague-Dawley Rats; [11],significant decreases
same,lowering of SBP at the end of 8 weeks,Sprague-Dawley Rats; [11],over 10 mm Hg
same,SBP at the end of 8 weeks,Sprague-Dawley Rats; low dose (KMgHCA L) 14 mg HCA per day,essentially did nothing
same,"insulin, control versus treatment, Student's t test","[2]; KMgHCA H 84 mg HCA per day, p=0.058",at the margin of significance
same,average insulin concentrations compared to control,[2],lower
same,body weight over three weeks,[4],trend for an increase
same,SBP from baseline,[5],decrease in SBP from baseline
same,glucose appearance in bloodstream in glucose tolerance test,[6],significantly lesser rise
same,decrease in SBP after losartan injection,"[7]; 100 mg HCA per day, at 6 hours, versus control",−21.7±7.0
"CCCCc1nc(Cl)c(CO)n1Cc1ccc(-c2ccccc2-c2nn[nH]n2)cc1 [losartan, reference compound]",SBP after losartan injection,[7]; both groups (control and KMgHCA),decreased
O=C([O-])CC(O)(C(=O)[O-])C(O)C(=O)[O-].[Na+].[Na+].[Na+] (centres unmarked) [trisodium hydroxycitrate],lowest dose in rats shown to be efficacious in reducing weight gain,[8],0.33 mmol/kg
